Data set [1] has as its target T1, Transient receptor potential cation channel subfamily V member 1 (Homo sapiens, UniProt Q8NER1). As to the kind of experiment: Effect on cooperativity of Resiniferatoxin (RTX) binding (Hill coefficient). Type of data set: functional.
Data set [2] has as its target T2, Transient receptor potential cation channel subfamily V member 1 (Rattus norvegicus, UniProt O35433). Description: Displacement of [3H]RTX from Vanilloid receptor in Rat spinal cord membranes. Type of data set: cell membranes, Membrane. In general terms: Displacement assays read how much labelled ligand stays bound in the presence of the test substance.
Data set [3] deals with T2, Transient receptor potential cation channel subfamily V member 1. As to the kind of experiment: Displacement of [3H]RTX binding from Vanilloid receptor of rat dorsal Root Ganglion (DRG) membranes. Type of data set: cell membranes, Membrane.
Data set [4] has the same target. Description: Inhibition of [3H]- RTX binding to vanilloid receptor of rat urinary bladder. It counts as functional.
Another data set has as its system Rattus norvegicus. As to the kind of experiment: Desensitisation against RTX-induced ear edema formation 24 hr r post-administration. It counts as functional.
For data set [5], the target named is T2, Transient receptor potential cation channel subfamily V member 1. Description: Inhibitory constant for RTX binding to rat spinal cord. Type of data set: functional.
Data set [6] has as its target T1, Transient receptor potential cation channel subfamily V member 1. As to the kind of experiment: Inhibitory constant for RTX binding to human spinal cord. Type of data set: functional, tissue-based.
The target is the same in data set [7]. Description: Inhibition of [3H]- RTX binding to Vanilloid receptors from human spinal cord.
Data set [8] can be described thus: The effect on the Cooperativity of Resiniferatoxin binding, as Quantitated by the Hill Coefficients.

T2 sequence (O35433 whole entry): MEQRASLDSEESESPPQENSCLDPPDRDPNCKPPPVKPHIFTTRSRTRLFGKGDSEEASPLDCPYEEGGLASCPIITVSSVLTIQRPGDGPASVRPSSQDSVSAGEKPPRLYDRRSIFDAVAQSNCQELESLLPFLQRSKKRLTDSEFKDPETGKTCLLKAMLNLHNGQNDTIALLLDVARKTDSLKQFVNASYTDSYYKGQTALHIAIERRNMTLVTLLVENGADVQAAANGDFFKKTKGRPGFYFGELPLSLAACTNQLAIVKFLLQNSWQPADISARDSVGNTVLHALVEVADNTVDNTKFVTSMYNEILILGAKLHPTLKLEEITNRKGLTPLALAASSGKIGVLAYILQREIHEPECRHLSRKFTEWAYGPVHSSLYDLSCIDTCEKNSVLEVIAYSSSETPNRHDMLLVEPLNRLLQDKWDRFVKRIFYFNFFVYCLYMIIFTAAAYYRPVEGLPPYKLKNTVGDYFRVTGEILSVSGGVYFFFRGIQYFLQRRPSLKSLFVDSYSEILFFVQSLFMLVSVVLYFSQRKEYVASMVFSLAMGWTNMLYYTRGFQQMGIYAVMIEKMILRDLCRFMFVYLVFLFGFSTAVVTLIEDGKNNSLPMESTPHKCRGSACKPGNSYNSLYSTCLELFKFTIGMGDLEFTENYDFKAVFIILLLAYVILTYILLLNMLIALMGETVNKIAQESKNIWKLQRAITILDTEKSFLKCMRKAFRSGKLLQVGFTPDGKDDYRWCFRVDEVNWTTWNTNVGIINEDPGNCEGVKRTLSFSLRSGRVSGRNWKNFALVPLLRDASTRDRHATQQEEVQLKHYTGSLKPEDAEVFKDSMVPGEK
T1 sequence (Q8NER1 whole entry): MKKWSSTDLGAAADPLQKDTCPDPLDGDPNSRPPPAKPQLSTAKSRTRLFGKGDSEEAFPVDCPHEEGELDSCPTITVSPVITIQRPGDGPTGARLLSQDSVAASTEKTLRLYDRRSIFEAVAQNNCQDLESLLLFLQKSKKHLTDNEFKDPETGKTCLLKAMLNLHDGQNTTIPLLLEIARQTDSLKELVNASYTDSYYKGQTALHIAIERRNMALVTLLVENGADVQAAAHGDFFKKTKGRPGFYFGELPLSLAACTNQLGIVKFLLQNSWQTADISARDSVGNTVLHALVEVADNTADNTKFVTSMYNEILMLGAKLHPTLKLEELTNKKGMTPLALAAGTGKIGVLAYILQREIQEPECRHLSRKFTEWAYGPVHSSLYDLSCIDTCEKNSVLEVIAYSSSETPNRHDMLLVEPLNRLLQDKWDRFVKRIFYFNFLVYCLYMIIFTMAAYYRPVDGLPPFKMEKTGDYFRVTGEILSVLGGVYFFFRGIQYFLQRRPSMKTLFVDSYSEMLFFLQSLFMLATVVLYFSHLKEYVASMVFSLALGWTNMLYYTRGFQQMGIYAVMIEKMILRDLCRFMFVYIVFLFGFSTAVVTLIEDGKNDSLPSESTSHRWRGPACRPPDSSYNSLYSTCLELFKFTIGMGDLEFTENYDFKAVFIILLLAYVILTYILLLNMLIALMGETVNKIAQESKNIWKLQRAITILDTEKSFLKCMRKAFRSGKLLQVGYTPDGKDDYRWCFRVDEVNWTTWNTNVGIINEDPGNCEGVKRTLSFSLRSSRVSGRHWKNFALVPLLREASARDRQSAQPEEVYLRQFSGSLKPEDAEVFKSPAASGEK

On to `COc1cc(CC(=O)OCC2=C[C@H]3[C@@H]4C(C)(C)[C@]4(OC(C)=O)[C@H](OC(=O)c4ccccc4)[C@@H](C)[C@]3(O)[C@@H]3C=C(C)C(=O)[C@@]3(O)C2)ccc1O`, for which the Hill coefficient (in general, a measure of the steepness of the concentration-response curve) in [1] amounted to 1.7. Also, the affinity in data set [2] corresponds to a Ki of 400 nM.

Consider `COc1cc(CC(=O)OCC2=C[C@H]3[C@@H]4C(C)(C)[C@]4(OC(C)=O)[C@H](OC(=O)Cc4ccccc4)[C@@H](C)[C@]3(O)[C@@H]3C=C(C)C(=O)[C@@]3(O)C2)ccc1O`, for which the Ki (as a rule, a dissociation constant, usually derived from enzyme kinetics or from competition with a known ligand) in [3] was 600 nM; in data set [4] it was 2000 nM; in data set [5], 0.054 nM; in data set [6], 0.45 nM; in data set [7] it was 6400 nM. This molecule also came in with a Hill coefficient in data set [1] of 1.1. Besides, in the data set on Rattus norvegicus, the ED50 – broadly, the dose that gives a 50% effect, or the effect in half of the subjects – is 10 mg/kg.

As to `COc1cc(CC(=O)OCC2=C[C@H]3[C@@H]4C(C)(C)[C@]4(OC(=O)Cc4ccccc4)[C@H](OC(=O)Cc4ccccc4)[C@@H](C)[C@]3(O)[C@@H]3C=C(C)C(=O)[C@@]3(O)C2)ccc1O`, in data set [1], the Hill coefficient amounted to 1.3. Affinity in data set [2] was put at a Ki of 300 nM.

In turn, `C=C(C)[C@]12C[C@@H](C)[C@@]34O[C@](Cc5ccccc5)(O[C@@H]1[C@@H]3C=C(COC(=O)Cc1ccc(O)c(OC)c1)C[C@]1(O)C(=O)C(C)=CC41)O2` (single isomer, unassigned) [RESINIFERATOXIN] returned an inhibition constant (Ki) in data set [2] of 0.02 nM. The Hill coefficient in data set [8] stood at 2.3.

For the molecule `COc1cc(CC(=O)OCC2=C[C@H]3[C@@H]4C(C)(C)[C@]4(OC(C)=O)[C@H](OC(=O)c4ccc(N=[N+]=[N-])cc4)[C@@H](C)[C@]3(O)[C@@H]3C=C(C)C(=O)[C@@]3(O)C2)ccc1O`, in [1], the Hill coefficient came out at 1.5. This molecule yielded a Ki in data set [2] of 200 nM.

In data set [2], `COc1cc(CC(=O)OCC2=C[C@H]3[C@@H]4C(C)(C)[C@]4(OC(C)=O)C(=O)[C@@H](C)[C@]3(O)[C@@H]3C=C(C)C(=O)[C@@]3(O)C2)ccc1O` had a Ki of more than 10000 nM.

`COc1cc(CC(=O)OCC2=C[C@H]3[C@@H]4C(C)(C)[C@]4(OC(=O)Cc4ccccc4)C(=O)[C@@H](C)[C@]3(O)[C@@H]3C=C(C)C(=O)[C@@]3(O)C2)ccc1O` registered a Hill coefficient in data set [1] of 0.9. For the same molecule, the Ki in [2] is 1300 nM.

Turning to `Oc1cc2c(cc1O)CN(C(=S)NCCc1ccc(Cl)cc1)CCC2` [CAPSAZEPINE], the Hill coefficient in data set [1] was 2.4. The molecule also had a Ki in data set [2] of 1200 nM.

`COc1cc(CC(=O)OCC2=C[C@H]3[C@@H]4C(C)(C)[C@]4(OC(C)=O)[C@H](OC(=O)Cc4ccccc4)[C@@H](C)[C@]3(O)[C@@H]3C=C(C)C(=O)[C@@]3(O)C2)ccc1OC(C)=O` displayed a Hill coefficient in data set [1] of 1. In data set [2], the affinity, expressed as Ki, was 1700 nM.

On to `COc1cc(CC(=O)OCC2=C[C@H]3[C@@H]4C(C)(C)[C@]4(OC(C)=O)[C@H](OC(=O)CC4CCCCC4)[C@@H](C)[C@]3(O)[C@@H]3C=C(C)C(=O)[C@@]3(O)C2)ccc1O`, for which the Hill coefficient in [1] stood at 1.1. Besides, in data set [2], the Ki turned out to be 400 nM.

Regarding `COc1cc(CNC(=O)CCCC/C=C/C(C)C)ccc1O`, in data set [1], the Hill coefficient was 2.

Molecule `COc1cc(CC(=O)OCC2=C[C@H]3[C@@H]4C(C)(C)[C@]4(OC(C)=O)[C@H](OC(=O)C4CCCCC4)[C@@H](C)[C@]3(O)[C@@H]3C=C(C)C(=O)[C@@]3(O)C2)ccc1O` gave a Hill coefficient in data set [1] of 1. In addition, the Ki in data set [2] is 2200 nM.

`COc1cc(CC(=O)OCC2=C[C@H]3[C@@H]4C(C)(C)[C@]4(OC(C)=O)[C@H](OC(=O)Cc4ccccc4)[C@@H](C)[C@]3(O)[C@@H]3C=C(C)[C@H](O)[C@@]3(O)C2)ccc1O` had a Ki in data set [2] of more than 10000 nM.

In the case of `COc1cc(CC(=O)OCC2=C[C@H]3[C@@H]4C(C)(C)[C@]4(OC(C)=O)[C@H](OC(=O)Cc4ccc(N=[N+]=[N-])cc4)[C@@H](C)[C@]3(O)[C@@H]3C=C(C)C(=O)[C@@]3(O)C2)ccc1O`, the Hill coefficient in data set [1] was found to be 1.4. The same molecule displayed a Ki in data set [2] of 200 nM.

The record behind these values is ChEMBL document CHEMBL1129077 (J Med Chem, 1996).
